Assay results taken from article PMC10180076, “Novel Biologically Active N-Substituted Benzimidazole Derived Schiff Bases: Design, Synthesis, and Biological Evaluation” (Molecules, 2023).
In brackets after ≈: the same amount, converted by molar mass.

Columns and labels:
[1] = system: human coronavirus HCoV-229E; test: organism not typed; assay type: cell-based; settings: HEL 299 cells, 100 CCID50, MTS; read-out: Antiviral Activity (EC50/μM) HCoV 229E HEL 299
[2] = system: human coronavirus HCoV-NL63; test: Antiviral CPE reduction assay, HCoV-NL63 in Huh-7; assay type: cell-based; settings: Huh-7 cells, 100 CCID50, MTS
[3] = system: influenza A/H1N1 (A/Ned/378/05); test: Antiviral CPE reduction assay, influenza A/H1N1 in MDCK; assay type: cell-based; settings: Influenza A virus, MDCK cells, 100 CCID50, MTS
Zika virus (Mr776) = test: Antiviral CPE reduction assay, Zika virus in Huh-7; assay type: cell-based; settings: Huh-7 cells, 100 CCID50, MTS
[4] = system: respiratory syncytial virus A (Long); test: Antiviral CPE reduction assay, RSV A in HEL 299; assay type: cell-based; settings: human respiratory syncytial virus; HEL 299 cells, 100 CCID50, MTS
[5] = system: influenza A/H3N2 (A/HK/7/87); test: Antiviral CPE reduction assay, influenza A/H3N2 in MDCK; assay type: cell-based; settings: Influenza A virus, MDCK cells, 100 CCID50, MTS
[6] = system: yellow fever virus (YFV 17D); test: microbe, parasite or virus in culture; assay type: cell-based; settings: Huh-7, read-out: Antiviral Activity (EC50/μM) YFV 17D Huh-7
sindbis virus = test: Antiviral CPE reduction assay, Sindbis virus in Huh-7; assay type: cell-based; settings: Huh-7 cells, 100 CCID50, MTS
[7] = system: herpes simplex virus-1 (HSV-1 KOS); test: Antiviral CPE reduction assay, HSV-1 KOS in HEL 299; assay type: cell-based; settings: Human alphaherpesvirus 1; HEL 299 cells, 100 CCID50, MTS
[8] = system: human coronavirus HCoV-OC43; test: microbe, parasite or virus in culture; assay type: cell-based; settings: Betacoronavirus 1, OC43; HEL 299 cells, 100 CCID50, MTS; read-out: Antiviral Activity (EC50/μM) HCoV OC43 HEL 299
[9] = system: influenza B (B/Ned/537/05); test: Antiviral CPE reduction assay, influenza B in MDCK; assay type: cell-based; settings: Influenza B virus; MDCK cells, 100 CCID50, MTS
in vitro [10] = settings: dog
in vitro [11] = settings: human
in vitro [12] = settings: human; remark: listed apart in the source
[13] = system: DND-41, acute lymphoblastic leukemia; test: Proliferation assay (MTS, 72 h), DND-41; assay type: cell-based, human; settings: Homo sapiens, DND41
Description: (§1) Human cancer cells used in this manuscript, namely Capan-1, HCT-116, NCI-H460, LN-229, HL-60, K-562, and Z-138, were acquired from the American Type Culture Collection (ATCC, Manassas, VA, USA), while the DND-41 cell line was purchased from the Deutsche Sammlung von Mikroorganismen und Zellkulturen (DSMZ Leibniz-Institut, Braunschweig, Germany). Culture media were purchased from Gibco Life Technologies, Merelbeke, Belgium, and supplemented with 10% fetal bovine serum (HyClone, Cytiva, Marlborough, MA, USA). Vincristine and docetaxel, which were used as the reference inhibitors, were purchased from Selleckchem (Munich, Germany). Stock solutions were prepared in DMSO.
(§2) Adherent cell lines LN-229, HCT-116, and NCI-H460 and Capan-1 cells were seeded at a density between 500 and 1500 cells per well, in 384-well tissue culture plates (Greiner, Kremsmünster, Austria). After overnight incubation, the cells were treated with seven different concentrations of the test compounds, ranging from 100 to 0.006 µM.
(§3) Suspension cell lines HL-60, K-562, Z-138, and DND-41 were seeded at densities ranging from 2500 to 5500 cells per well in 384-well culture plates containing the test compounds at the same concentration points. The cells were incubated for 72 h with the compounds and were then analyzed using the CellTiter 96® AQueous One Solution Cell Proliferation Assay (MTS) reagent (Promega, Madison, WI, USA) according to the manufacturer’s instructions. […] The compounds were tested in two independent experiments.

E. coli efflux del = test: microbe, parasite or virus in culture; assay type: cell-based; settings: Table 2 prints no unit; μM for compounds; antibiotics tested at 0.125–64 µg/mL
Description: (§4) Selected bacterial strains were Gram-negative E. coli, K. pneumoniae, A. baumannii and P. aeruginosa and Gram-positive S. aureus, S. pneumoniae, and E. faecalis. The synthesized compounds were prepared as 10 mM DMSO solutions and tested in a final concentration range of 0.2–100 µM [39].
(§5) Broth microdilution testing was performed according to CLSI (Clinical Laboratory Standards Institute) guidelines. The MIC (minimal inhibitory concentration) value was defined as the last tested concentration of the compound at which there was no visible growth of bacteria. Inoculums for each microorganism were prepared using the direct colony suspension method, where broth solutions that achieved turbidity equivalent to 0.5 McFarland standard were additionally diluted 100× with Ca adjusted MH media (Becton Dickinson, Franklin Lakes, NJ, USA). All of the test plates were incubated for 16–24 h at 37 °C.
(§6) Methods for dilution of antimicrobial susceptibility tests for bacteria that grow aerobically followed M07, 11th edition, 2018, and Clinical and Laboratory Standards Institute (CLSI) guidelines. Performance standards for antimicrobial susceptibility testing followed the M100, 28th edition, 2018.

LN-229, glioblastoma = test: Proliferation assay (MTS, 72 h), LN-229; assay type: cell-based, human; settings: Homo sapiens, LN-229
Description: as §1, §2, §3

[14] = system: Capan-1, pancreatic adenocarcinoma; test: Proliferation assay (MTS, 72 h), Capan-1; assay type: cell-based, human; settings: Homo sapiens, CAPAN-1
Description: as §1, §2, §3

[15] = system: HL-60, acute myeloid leukemia; test: Proliferation assay (MTS, 72 h), HL-60; assay type: cell-based, human; settings: Homo sapiens, HL-60
Description: as §1, §2, §3

NCI-H460, lung carcinoma = test: Proliferation assay (MTS, 72 h), NCI-H460; assay type: cell-based, human; settings: Homo sapiens, NCI-H460
Description: as §1, §2, §3

[16] = system: K-562, chronic myeloid leukemia; test: Proliferation assay (MTS, 72 h), K-562; assay type: cell-based, human; settings: Homo sapiens, K562
Description: as §1, §2, §3

[17] = system: Z-138, non-Hodgkin lymphoma; test: Proliferation assay (MTS, 72 h), Z-138; assay type: cell-based, human; settings: Homo sapiens, Z-138
Description: as §1, §2, §3

[18] = system: HCT-116, colorectal carcinoma; test: Proliferation assay (MTS, 72 h), HCT-116; assay type: cell-based, human; settings: Homo sapiens, HCT-116
Description: as §1, §2, §3

E. faecalis ATCC 29212 = test: Broth microdilution MIC, E. faecalis; assay type: cell-based; settings: Enterococcus faecalis, ATCC29212; read-out: MIC against E. faecalis
Description: as §4, §5, §6

SMILES: CC(C)Cn1c(N)nc2ccccc21 [Compound 17, 2-amino-1-isobutylbenzimidazole]
- EC50 [1]: 78.9 µM
- EC50 [2]: > 100 µM
- EC50 [3]: > 100 µM
- EC50 (Zika virus (Mr776)): > 100 µM
- EC50 [4]: > 100 µM
- EC50 [5]: > 100 µM
- EC50 [6]: > 100 µM
- EC50 (sindbis virus): > 100 µM
- EC50 [7]: > 100 µM
- EC50 [8]: > 100 µM
- EC50 [9]: > 100 µM
- CC50 (in vitro [10]): > 100 µM
- CC50 (in vitro [11]): > 100 µM
- CC50 (in vitro [12]): > 100 µM

SMILES: CN(C)c1ccc(/C=N/c2nc3ccccc3n2-c2ccccc2)cc1 [Compound 38, (E)-N,N-Dimethyl-4-(((1-phenyl-1H-benzo[d]imidazol-2-yl)imino)methyl)aniline]
- EC50 [1]: > 100 µM
- EC50 [2]: > 100 µM
- IC50 [13]: > 100 µM
- EC50 [3]: > 100 µM
- EC50 (Zika virus (Mr776)): > 100 µM
- MIC E. coli efflux del (E. coli efflux del): >64
- EC50 [4]: > 100 µM
- EC50 [5]: > 100 µM
- EC50 [6]: > 100 µM
- EC50 (sindbis virus): > 100 µM
- EC50 [7]: > 100 µM
- IC50 (LN-229, glioblastoma): > 100 µM
- melting point: 204 to 207 °C
- EC50 [8]: 94.8 µM
- IC50 [14]: > 100 µM
- IC50 [15]: > 100 µM
- IC50 (NCI-H460, lung carcinoma): > 100 µM
- EC50 [9]: > 100 µM
- CC50 (in vitro [10]): > 100 µM
- IC50 [16]: > 100 µM
- IC50 [17]: > 100 µM
- CC50 (in vitro [11]): > 100 µM
- IC50 [18]: > 100 µM
- CC50 (in vitro [12]): > 100 µM
- MIC (E. faecalis ATCC 29212): 32 µM (≈ 10.9 µg/mL)

SMILES: C[C@@H](O)[C@H]1C(=O)N2C(C(=O)O)=C(S[C@@H]3CN[C@H](C(=O)N(C)C)C3)[C@H](C)[C@H]12 [Meropenem, meropenem, reference compound]
- MIC E. coli efflux del (E. coli efflux del): 8

SMILES: Cn1c(N)nc2ccccc21 [Compound 18, 2-amino-1-methylbenzimidazole]
- EC50 [1]: > 100 µM
- EC50 [2]: > 100 µM
- EC50 [3]: > 100 µM
- EC50 (Zika virus (Mr776)): 43.1 µM
- EC50 [4]: > 100 µM
- EC50 [5]: > 100 µM
- EC50 [6]: > 100 µM
- EC50 (sindbis virus): > 100 µM
- EC50 [7]: > 100 µM
- EC50 [8]: > 100 µM
- EC50 [9]: > 100 µM
- CC50 (in vitro [10]): > 100 µM
- CC50 (in vitro [11]): > 100 µM
- CC50 (in vitro [12]): > 100 µM
